Results on 7 compounds are retold here after ChEMBL document CHEMBL1833893, “Synthesis and anticonvulsant activity of new 1-[2-oxo-2-(4-phenylpiperazin-1-yl)ethyl]pyrrolidine-2,5-diones” (Bioorg Med Chem Lett, 2011).

The subject of data set [1] is Mus musculus. Briefly: Anticonvulsant activity in albino CF1 mouse assessed as protection against maximal electroshock-induced seizures at 300 mg/kg, ip after 0.5 hrs. Format: functional, organism-based. Further details: dose 300 mg/kg.
Data set [2] concerns Mus musculus. Briefly: Anticonvulsant activity in albino CF1 mouse assessed as protection against maximal electroshock-induced seizures at 300 mg/kg, ip after 4 hrs. Format: functional, organism-based. Further details: dose 300 mg/kg. On the technique in general: Protection in the maximal electroshock model is a classic sign of anticonvulsant action.
Data set [3] has as its system Mus musculus. Briefly: Anticonvulsant activity in albino CF1 mouse assessed as protection against subcutaneous pentylenetetrazole-induced seizures at 300 mg/kg, ip after 0.5 hrs. It is filed as functional, organism-based. Further details: dose 300 mg/kg.
Data set [4] deals with Mus musculus. Kind of data set: Anticonvulsant activity in albino CF1 mouse assessed as protection against subcutaneous pentylenetetrazole-induced seizures at 300 mg/kg, ip after 4 hrs. Also noted: dose 300 mg/kg. It is filed as functional, organism-based.
For data set [5], the system named is Mus musculus. Kind of data set: Neurotoxicity in albino CF1 mouse assessed as motor impairment at 300 mg/kg, ip after 0.5 hrs by rotarod test. Also noted: dose 300 mg/kg, route intraperitoneal. It is filed as toxicity, organism-based. To be noted: in vivo. In general terms: Falling from the rotarod earlier than controls is read as motor impairment.
The test system of data set [6] is Mus musculus. Briefly: Neurotoxicity in albino CF1 mouse assessed as motor impairment at 300 mg/kg, ip after 4 hrs by rotarod test. Also noted: dose 300 mg/kg, route intraperitoneal. To be noted: in vivo. It is filed as toxicity, organism-based.
The test system of data set [7] is Mus musculus. Kind of data set: Anticonvulsant activity in ip dosed albino CF1 mouse assessed as protection against subcutaneous pentylenetetrazole-induced seizures after 0.5 hrs. It is filed as functional. To be noted: albino CF1, 0.5 h, read-out: MED.
Data set [8] deals with Mus musculus. Kind of data set: Anticonvulsant activity in ip dosed albino CF1 mouse assessed as protection against subcutaneous pentylenetetrazole-induced seizures after 4 hrs. It is filed as functional. To be noted: albino CF1, 4 h, read-out: MED.
For data set [9], the system named is Mus musculus. Briefly: Anticonvulsant activity in ip dosed albino CF1 mouse assessed as protection against maximal electroshock-induced seizures after 0.5 hrs. It is filed as functional. To be noted: read-out: MED.
Data set [10] relates to Mus musculus. Kind of data set: Neurotoxicity in ip dosed albino CF1 mouse assessed as minimum dose required to cause motor impairment after 0.5 hrs by rotarod test. Format: toxicity, organism-based. To be noted: in vivo.
In data set [11] the test system is Mus musculus. Kind of data set: Anticonvulsant activity in ip dosed albino CF1 mouse assessed as protection against maximal electroshock-induced seizures after 4 hrs. It is filed as functional. To be noted: read-out: MED.
Data set [12] concerns Mus musculus. Kind of data set: Anticonvulsant activity in ip dosed albino CF1 mouse assessed as protection against maximal electroshock-induced seizures after 0.25 hrs. Format: functional. To be noted: read-out: MED.
Data set [13] deals with Mus musculus. Briefly: Neurotoxicity in ip dosed albino CF1 mouse assessed as minimum dose required to cause motor impairment after 4 hrs by rotarod test. Format: toxicity, organism-based. To be noted: in vivo.
For data set [14], the system named is Rattus norvegicus. Kind of data set: Anticonvulsant activity in Sprague-Dawley rat assessed as protection against maximal electroshock-induced seizures at 30 mg/kg, po after 0.25 hrs. It is filed as functional.
In data set [15] the test system is Rattus norvegicus. Kind of data set: Anticonvulsant activity in Sprague-Dawley rat assessed as protection against maximal electroshock-induced seizures at 30 mg/kg, po after 1 hr. It is filed as functional.
Data set [16] deals with Rattus norvegicus. Briefly: Anticonvulsant activity in Sprague-Dawley rat assessed as protection against maximal electroshock-induced seizures at 30 mg/kg, po after 2 hrs. It is filed as functional.
For data set [17], the system named is Rattus norvegicus. Kind of data set: Anticonvulsant activity in Sprague-Dawley rat assessed as protection against maximal electroshock-induced seizures at 30 mg/kg, po after 4 hrs. It is filed as functional.
The subject of data set [18] is Mus musculus. Briefly: Anticonvulsant activity in albino CF1 mouse assessed as protection against electrically-induced seizure at 100 mg/kg, ip after 0.25 hrs by 6Hz psychomotor seizure test. Format: functional.
Data set [19] deals with Mus musculus. Kind of data set: Anticonvulsant activity in albino CF1 mouse assessed as protection against electrically-induced seizure at 100 mg/kg, ip after 0.5 hrs by 6Hz psychomotor seizure test. It is filed as functional.
Data set [20] concerns Mus musculus. Kind of data set: Anticonvulsant activity in albino CF1 mouse assessed as protection against electrically-induced seizure at 100 mg/kg, ip after 1 hr by 6Hz psychomotor seizure test. It is filed as functional.
For data set [21], the system named is Mus musculus. Briefly: Anticonvulsant activity in albino CF1 mouse assessed as protection against electrically-induced seizure at 100 mg/kg, ip after 2 hrs by 6Hz psychomotor seizure test. Format: functional.
For data set [22], the system named is Mus musculus. Briefly: Anticonvulsant activity in albino CF1 mouse assessed as protection against electrically-induced seizure at 100 mg/kg, ip after 4 hrs by 6Hz psychomotor seizure test. It is filed as functional.
Data set [23] relates to Rattus norvegicus. Briefly: Anticonvulsant activity in Sprague-Dawley rat assessed as protection against maximal electroshock-induced seizures at 30 mg/kg, po after 0.5 hrs. Format: functional.

Each structure is given as a SMILES string. The source made the active and inactive calls. The calls are words filed in the database; no cut-off is given here.

Take `CCC1(CC)CC(=O)N(CC(=O)N2CCN(c3ccccc3)CC2)C1=O`: the outcome with Mus musculus [1], with Mus musculus [2], in the data set with Mus musculus [3] and in the data set with Mus musculus [4] was inactive. In addition, the Activity entry in the data set on Mus musculus [5] and in the data set with Mus musculus [6] was “Non-toxic” throughout.

On to `CCC1(C)CC(=O)NC1=O` (stereo not given) [ETHOSUXIMIDE], for which the outcome in the data set with Mus musculus [1] and in the data set on Mus musculus [2] was inactive. Also, the minimal effective dose is 100 mg/kg in the data set with Mus musculus [7] and 300 mg/kg in the data set with Mus musculus [8]. Besides, the Activity entry in the data set on Mus musculus [5] and in the data set on Mus musculus [6] was “Non-toxic” in each case.

For the compound `CC1CC(=O)N(CC(=O)N2CCN(c3ccccc3)CC2)C1=O` (stereo not given), the minimal effective dose in the data set with Mus musculus [9], in the data set on Mus musculus [7] and in the data set on Mus musculus [8] was 300 mg/kg throughout. The outcome in the data set with Mus musculus [2] was inactive. The MTC in the data set on Mus musculus [10] is 300 mg/kg. Also, in the data set on Mus musculus [6], the Activity entry is on record as “Non-toxic”.

Turning to `CCC1(CC)CC(=O)N(CC(=O)N2CCN(c3ccc(Cl)cc3)CC2)C1=O`, the minimal effective dose in the data set on Mus musculus [11] was 300 mg/kg. Moreover, the outcome with Mus musculus [1], in the data set on Mus musculus [3] and in the data set on Mus musculus [4] was inactive. Moreover, the Activity result in the data set with Mus musculus [5] and in the data set on Mus musculus [6] was “Non-toxic” in each case.

For `CC1(C)CC(=O)N(CC(=O)N2CCN(c3ccccc3)CC2)C1=O`, the minimal effective dose in the data set on Mus musculus [9] came out at 300 mg/kg; with Mus musculus [12] it was 100 mg/kg. For the same compound, the result with Mus musculus [2], with Mus musculus [3] and with Mus musculus [4] was inactive. Also, the Activity entry in the data set with Mus musculus [5] and in the data set on Mus musculus [6] was “Non-toxic” each time.

As to `O=C(CN1C(=O)CCC1=O)N1CCN(c2cccc(C(F)(F)F)c2)CC1`, the minimal effective dose was found to be 100 mg/kg in the data set with Mus musculus [9], 100 mg/kg in the data set on Mus musculus [11] and 300 mg/kg in the data set on Mus musculus [8]. Also, the result with Mus musculus [3] and with Rattus norvegicus [14] was inactive. In addition, the MTC stood at 100 mg/kg in the data set on Mus musculus [10] and 300 mg/kg in the data set with Mus musculus [13]. For the same compound, the Activity in the data set on Rattus norvegicus [15] stood at 75%; with Rattus norvegicus [16], 75%; with Rattus norvegicus [17] it was 75%; in the data set with Mus musculus [18] (route intraperitoneal), 100%; with Mus musculus [19] (route intraperitoneal) it was 100%; in the data set with Mus musculus [20] (route intraperitoneal), 75%. Further, the Activity was 100% with Mus musculus [21] (route intraperitoneal) and 75% in the data set on Mus musculus [22] (route intraperitoneal).

Consider `O=C(CN1C(=O)CCC1=O)N1CCN(c2ccc(Cl)cc2)CC1`, for which the results for the minimal effective dose in the data set with Mus musculus [9], in the data set on Mus musculus [11] and in the data set with Mus musculus [7] were 100 mg/kg, 300 mg/kg and 300 mg/kg, respectively. Moreover, the outcome with Mus musculus [4], with Rattus norvegicus [14], with Rattus norvegicus [23], with Rattus norvegicus [15], with Mus musculus [18] and in the data set with Mus musculus [19] was inactive. Moreover, the outcome with Mus musculus [20], in the data set on Mus musculus [21] and in the data set with Mus musculus [22] was inactive. Further, in the data set with Mus musculus [13], the MTC was 300 mg/kg. In the data set with Mus musculus [5], the Activity result was “Non-toxic”.
